Assays:
Tetranychus urticae = Tetranychus urticae spray test, OP-resistant (TETRUR); type: in vivo; conditions: application rate of 500 g/ha, after 6 days; for pest or weed control at 500 g/ha: Tetranychus urticae, 144 h, read-out: efficacy
How it was run: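 Bean leaf discs infested with all stages of an OP-resistant Tetranychus urticae strain sprayed with compound in acetone/DMF with alkylaryl polyglycol ether emulsifier, diluted in water. Efficacy in % scored after 6 days; 100% means all mites killed.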

[1] = log P by HPLC (OECD Guideline 117), method [b] neutral range; type: physicochemical; conditions: HPLC; for logP[b]: method [b] neutral range; for chromatographic logP: reversed-phase C18 HPLC column, neutral range, pH 7.8
Method: (§1) The log P values were determined analogously to OECD Guideline 117 (EC Directive 92/69/EEC) by HPLC (high-performance liquid chromatography) using reversed-phase columns (C 18), by the following methods:
[b] The LC-MS determination in the neutral range is effected at pH 7.8 with 0.001 molar aqueous ammonium hydrogencarbonate solution and acetonitrile as eluents; linear gradient from 10% acetonitrile to 95% acetonitrile.

[2] = log P by HPLC (OECD Guideline 117), method [a] acidic range; type: physicochemical; conditions: for logP[a]: HPLC, method [a] acidic range; for chromatographic logP: reversed-phase C18 HPLC column, acidic range
Method: as §1
[a] The LC-MS determination in the acidic range is effected at pH 2.7 with 0.1% aqueous formic acid and acetonitrile (contains 0.1% formic acid) as eluents; linear gradient from 10% acetonitrile to 95% acetonitrile.

Phaedon cochleariae = Phaedon cochleariae spray test (PHAECO); type: in vivo; conditions: after 7 days; for pest or weed control at 500 g/ha: Phaedon cochleariae, 168 h, read-out: efficacy
Method: Phaedon cochleariae—Spray Test (PHAECO)
• Solvent: 78.0 parts by weight of acetone • 1.5 parts by weight of dimethylformamide • Emulsifier: 0.5 part by weight of alkylaryl polyglycol ether
To produce an appropriate active ingredient formulation, 1 part by weight of active ingredient is mixed with the specified amounts of solvent and emulsifier, and the concentrate is diluted to the desired concentration with emulsifier-containing water.
Discs of Chinese cabbage leaves (Brassica pekinensis) are sprayed with an active ingredient formulation of the desired concentration and, after drying, populated with larvae of the mustard beetle (Phaedon cochleariae).
After 7 days, the efficacy in % is determined 100% means that all beetle larvae have been killed; 0% means that none of the beetle larvae have been killed.

[3] = pH 2.7, HPLC method [a], read-out: logP[a]
[4] = pH 2.7, HPLC, pH 2.7, read-out: log P[a]

SMILES	logP[b] [1]	logP[a] [2]	chromatographic logP [1]	chromatographic logP [2, 3]	chromatographic logP [2, 4]	efficacy (Tetranychus urticae) [%]	efficacy (Phaedon cochleariae; application rate of 500 g/ha) [%]	efficacy (Phaedon cochleariae; application rate of 100 g/ha) [%]	pest or weed control at 500 g/ha (Tetranychus urticae) [%]	pest or weed control at 500 g/ha (Phaedon cochleariae; application rate of 500 g/ha) [%]
COc1nn(-c2cc([S+]([O-])CC(F)(F)F)c(Cl)cc2F)c(=O)n1C (stereo not shown) [Example 98]	2.10	2.12				100		83		
C=CCn1c(OC)nn(-c2ccc(C)c([S+]([O-])CC(F)(F)F)c2)c1=O (stereo not shown) [Example 179]	2.57	2.61				90	100			
CNc1nn(-c2cc([S+]([O-])CC(F)(F)F)c(C)cc2F)c(=O)n1N (stereo not shown) [Example 219]	1.29	1.32				90	100			
CCN(CC)c1nn(-c2cc([S+]([O-])CC(F)(F)F)c(C)cc2F)c(=O)n1N (stereo not shown) [Example 223]	2.18	2.23				90	100			
Cc1cc(F)c(-n2nc(NC(C)C)n(N)c2=O)cc1[S+]([O-])CC(F)(F)F (stereo not shown) [Example 225]	1.83	1.87				100	100			
C=CCn1c(SC)nn(-c2cc([S+]([O-])CC(F)(F)F)c(C)cc2F)c1=O (stereo not shown) [Example 272]	2.48	2.54				100	83			
Cc1cc(F)c(N2CC(OC3CCCC3)=CC2=O)cc1SCC(F)(F)F [Example 329, 4-(Cyclopentyloxy)-1-{2-fluoro-4-methyl-5-[(2,2,2-trifluoroethyl)sulphanyl]phenyl}-1,5-dihydro-2H-pyrrol-2-one]			4.06	4.2	4.2				90	100
Cc1cc(F)c(N2CC(OC3CCCC3)=CC2=O)cc1[S+]([O-])CC(F)(F)F (stereo not shown) [Example 336, 4-(Cyclopentyloxy)-1-{2-fluoro-4-methyl-5-[(2,2,2-trifluoroethyl)sulphinyl]phenyl}-1,5-dihydro-2H-pyrrol-2-one]			2.91	2.97	2.97				90	83

More lines, main results first:

logP[b] [1]	logP[a] [2]	chromatographic logP [1]	chromatographic logP [2, 3]	chromatographic logP [2, 4]	SMILES	efficacy (Tetranychus urticae) [%]	efficacy (Phaedon cochleariae; application rate of 500 g/ha) [%]	efficacy (Phaedon cochleariae; application rate of 100 g/ha) [%]	pest or weed control at 500 g/ha (Tetranychus urticae) [%]	pest or weed control at 500 g/ha (Phaedon cochleariae; application rate of 500 g/ha) [%]
2.73	2.78				COc1nn(-c2cc(SCC(F)(F)F)c(C)cc2F)c(=O)n1C [Example 93]	90	100			
4.45	4.55				Cc1ccc(-n2nc(OC(C)(C)C)n(C)c2=O)cc1SCC(F)(F)F [Example 154]	100	83			
3.81	3.87				C=CCn1c(OC)nn(-c2ccc(C)c(SCC(F)(F)F)c2)c1=O [Example 176]	90	100			
1.34	1.36				Cc1cc(F)c(-n2nc(C)n(N)c2=O)cc1[S+]([O-])CC(F)(F)F (stereo not shown) [Example 209]	100	83			
2.82	2.86				COCCOC1=CC(=O)N(c2cc(SCC(F)(F)F)c(C)cc2F)C1 [Example 328]	90	100			
3.21	3.29				CCOC1=CC(=O)N(c2cc(SCC(F)(F)F)c(C)cc2F)C1 [Example 330]	90	100			
3.40	3.48				Cc1cc(F)c(-n2ncn(-c3ccc(F)cc3)c2=O)cc1SCC(F)(F)F [Example 349]	90	100			
3.34	3.40				Cc1cc(F)c(-n2nc(C)n(-c3ccccc3)c2=O)cc1SCC(F)(F)F [Example 350]	100	83			
3.36	3.43				Cc1cc(F)c(-n2ncn(-c3ccccc3)c2=O)cc1SCC(F)(F)F [Example 351]	100	100			

From patent US9981940B2, “Aryl sulfide derivatives and aryl sulfoxide derivatives as acaricides and insecticides” (BAYER CROPSCIENCE AKTIENGESELLSCHAFT, priority 2013, dated 2018)
